In patent publication US20140065697A1, “CELLS AND METHODS FOR PRODUCING ISOBUTYRIC ACID” (Regents of the University of Minnesota, priority 2011, published 2014):
Read-outs that look alike come from different tables or passages of the source.

Experiments:
CC(C)C=O = test: Measurement of PadA activity (NADH generation at 340 nm, Michaelis-Menten fit); assay type: biochemical, E. coli; settings: other: PadA, substrate isobutyraldehyde, 0.5 mM NAD+, pH 8.0, 30.0 °C
Description: (§1) Because it produced the greatest amount of isobutyrate, we selected PadA for further study. To characterize the enzyme, PadA was tagged with an N-terminal 6×His-tag, overexpressed, and purified through a Ni-NTA column. The kinetic parameters for conversion of isobutyraldehyde by PadA were determined by measuring the reduction of NAD+ to NADH at 340 nm. PadA activity toward isobutyraldehyde is much lower than that toward its natural physiological substrate phenylacetaldehyde.
(§2) pIBA10 was transformed into BL-21 E. coli host harboring the pREP4 plasmid (Qiagen; Valencia, Calif.). An overnight pre-culture was diluted 100-fold in 300 mL 2×YT rich medium containing 50 mg/L ampicillin, 25 mg/L kanamycin and 0.1 mM IPTG. Expression of recombinant protein was performed at 30° C. overnight.
(§3) The cell pellet was sonicated in 30 mL lysis buffer (250 mM NaCl, 2 mM DTT, 5 mM imidazole and 50 mM Tris pH 8.0). The cellular debris was removed by centrifugation at 15,000 RPM for 20 minutes. The supernatant was passed through a Ni-NTA column. Then the column was washed with 10 mL wash buffer (250 mM NaCl, 20 mM imidazole and 50 mM Tris pH 8.0) four times. Finally, the target protein was eluted with 10 mL elution buffer (250 mM NaCl, 250 mM imidazole and 50 mM Tris pH 8.0). The eluate was buffer-exchanged and concentrated into storage buffer ([…] tris buffer, pH 8.0, and 20% glycerol) using AMICON ULTRA centrifugal filter (Millipore Corp.; Billerica, Mass.). Protein concentration was determined by measuring the UV absorbance at 280 nm (extinction coefficient, 75070 cm^−1 M^−1). The concentrated protein solution was aliquoted (100 μl) into PCR tubes and flash frozen at −80° C. for long term storage.
(§4) Substrate isobutyraldehyde was purchased from Fisher Scientific International, Inc. (Hampton, N.H.), and NAD^+ was from New England Biolabs, Inc., (Ipswich, Mass.). The reaction mixture contained 0.5 mM NAD^+ and 0.2-4 mM isobutyraldehyde in assay buffer (50 mM NaH2PO4, pH 8.0, 1 mM DTT) with a total volume of 80 μl. The reactions were started by adding 2 μl […] (final enzyme concentration 25 nM), and the generation of NADH was monitored at 340 nm (extinction coefficient, 6.22 mM^−1 cm^−1). Kinetic parameters (kat and Km) were determined by fitting initial velocity data to the Michaelis-Menten equation using Origin software.

PadA [1] = target: T1, PadA (Escherichia coli, UniProt P80668); settings: natural substrate phenylacetaldehyde (asterisked line); cited from earlier work
T1 construct: […]; 6xHis (N); made in house; host or cells: E. coli BL-21 harboring pREP4; plasmid pIBA10 (pQE9)
T1 sequence (P80668 1-499): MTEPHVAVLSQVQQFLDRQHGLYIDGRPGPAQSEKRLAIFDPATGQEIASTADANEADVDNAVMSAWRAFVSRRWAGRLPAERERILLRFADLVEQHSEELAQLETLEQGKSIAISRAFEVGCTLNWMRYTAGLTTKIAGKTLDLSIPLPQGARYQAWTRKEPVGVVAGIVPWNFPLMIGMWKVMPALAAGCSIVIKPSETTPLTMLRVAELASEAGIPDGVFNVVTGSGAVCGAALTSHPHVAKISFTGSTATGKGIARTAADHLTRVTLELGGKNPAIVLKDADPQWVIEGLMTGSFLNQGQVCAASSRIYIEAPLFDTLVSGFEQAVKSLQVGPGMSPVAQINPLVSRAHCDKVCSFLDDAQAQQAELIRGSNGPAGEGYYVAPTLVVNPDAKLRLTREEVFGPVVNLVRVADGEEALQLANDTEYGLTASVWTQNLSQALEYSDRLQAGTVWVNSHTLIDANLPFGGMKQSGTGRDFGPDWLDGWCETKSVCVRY

PadA [2] = target: T1, PadA; test: Measurement of PadA activity (NADH generation at 340 nm, Michaelis-Menten fit); assay type: biochemical, E. coli; settings: for kcat: substrate isobutyraldehyde
Description: as §1, §2, §3, §4

YqhD = YqhD (Escherichia coli, UniProt Q46856); settings: Atsumi et al., 2010; cited from earlier work
Chain of YqhD (Q46856 whole entry): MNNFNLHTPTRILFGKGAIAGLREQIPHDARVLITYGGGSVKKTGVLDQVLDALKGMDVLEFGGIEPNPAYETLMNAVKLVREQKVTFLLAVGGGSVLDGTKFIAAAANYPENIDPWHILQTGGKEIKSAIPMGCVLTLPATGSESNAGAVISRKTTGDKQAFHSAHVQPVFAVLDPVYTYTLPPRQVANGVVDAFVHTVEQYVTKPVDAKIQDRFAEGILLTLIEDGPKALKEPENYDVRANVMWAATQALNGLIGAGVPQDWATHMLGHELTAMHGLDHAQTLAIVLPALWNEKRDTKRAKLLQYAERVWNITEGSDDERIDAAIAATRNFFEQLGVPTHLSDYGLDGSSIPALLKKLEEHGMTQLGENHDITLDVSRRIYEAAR

PadA (Escherichia coli K-12)
Km (CC(C)C=O): 2670 µM

O=CCc1ccccc1 [Phenylacetaldehyde, phenylacetaldehyde]
Km (PadA [1]): 11.6 µM | kcat (PadA [1]): 96.83 s⁻¹ | specificity constant kcat/Km higher than towards isobutyraldehyde (PadA [2]): ~1000 fold

CC(C)C=O [Isobutyraldehyde, isobutyraldehyde]
Km value higher than toward phenylacetaldehyde (PadA [2]): 230 fold | kcat value lower than toward phenylacetaldehyde (PadA [2]): 4 fold | kcat (PadA [2]): 24.9 ± 0.5 s⁻¹ | kcat (PadA [2]; listed as isobutyraldehyde): 24.9 s⁻¹ | Km (YqhD): 1800 µM
